One compound from ChEMBL document CHEMBL4359842 (J Med Chem, 2019) can be followed below.

SMILES strings stand for the structures. Active and inactive are the calls of the source. No cut-off for these calls is given here.

For data set [1], the system named is Mus musculus. As to the kind of experiment: In vivo inhibition of JNK in APPswe/PS1dE9 double mutant-transgenic mouse model assessed as reduction in APP phosphorylation at Thr668 residue in hippocampus at 30 mg/kg, ip administered once daily for 12 weeks measured post-last dose by Western blot analysis. Type of data set: functional, organism-based. A general note: In western blotting, separated proteins are transferred to a membrane and probed.

A short description of data set [2]: Primary phase half life in APPswe/PS1dE9 double mutant-transgenic mouse at 3 mg/kg, iv administered as single dose by LC-MS/MS analysis. In kind it is ADME, organism-based. Particulars: in vivo, read-out: alphat1/2 (converted).
The test system of data set [3] is Mus musculus. As to the kind of experiment: Improvement in spatial memory impairment in ip dosed APPswe/PS1dE9 double mutant-transgenic mouse model assessed as decrease in number of fibrillar plaque in cortex administered once daily for 12 weeks measured post-last dose by thioflavin S staining-based fluorescence microscopic analysis. In kind it is functional, organism-based.

For data set [4], the target named is Mitogen-activated protein kinase 10 (Homo sapiens, UniProt P53779). As to the kind of experiment: Inhibition of recombinant human full-length JNK3 at 10 uM using ATF2 as substrate measured after 40 mins in presence of [gamma33P]ATP by scintillation counting analysis relative to control.
A short description of data set [5]: Plasma concentration in APPswe/PS1dE9 double mutant-transgenic mouse at 30 mg/kg, ip administered as single dose measured after 0.5 hrs by LC-MS/MS analysis. In kind it is ADME, organism-based.
The species entered for data set [6] is Mus musculus. As to conditions: 15 to 30 mg/kg.
Description: In vivo inhibition of JNK in APPswe/PS1dE9 double mutant-transgenic mouse model assessed as increase in transformation of sAPPbeta to sAPPalpha by measuring reduction in sAPPbeta level at 15 to 30 mg/kg, ip administered once daily for 12 weeks measured post-last dose by Western blot analysis
Data set [7] is described as follows: Ratio of drug level in APPswe/PS1dE9 double mutant-transgenic mouse brain to plasma at 30 mg/kg, ip administered as single dose measured after 2 hrs by LC-MS/MS analysis. Type of data set: ADME, organism-based. Particulars: read-out: BPR.
Data set [8] is described as follows: Plasma concentration in APPswe/PS1dE9 double mutant-transgenic mouse at 30 mg/kg, ip administered as single dose measured after 24 hrs by LC-MS/MS analysis. Type of data set: ADME, organism-based.
In data set [9] the test system is Mus musculus. The data set can be described thus: Improvement in spatial memory impairment in APPswe/PS1dE9 double mutant-transgenic mouse model assessed as decrease in exploration distance at 15 to 30 mg/kg, ip administered once daily for 12 weeks measured 24 hrs after training trial by morris water maze test. In kind it is functional, organism-based.
Data set [10] has as its system Mus musculus. As to the kind of experiment: In vivo inhibition of JNK in APPswe/PS1dE9 double mutant-transgenic mouse model assessed as reduction in Tau phosphorylation at Thr205 residue in hippocampus at 30 mg/kg, ip administered once daily for 12 weeks measured post-last dose by Western blot analysis. Type of data set: functional, organism-based.
Data set [11] deals with Mus musculus. As to the kind of experiment: Improvement in spatial memory impairment in ip dosed APPswe/PS1dE9 double mutant-transgenic mouse model assessed as decrease in number of fibrillar plaque in hippocampus administered once daily for 12 weeks measured post-last dose by thioflavin S staining-based fluorescence microscopic analysis. Type of data set: functional, organism-based.

In data set [12] the test system is Mus musculus. The data set can be described thus: Improvement in spatial memory impairment in APPswe/PS1dE9 double mutant-transgenic mouse model assessed as increase in duration of time spent in target quadrant at 15 to 30 mg/kg, ip administered once daily for 12 weeks measured 24 hrs after training trial by morris water maze test. In kind it is functional, organism-based.

Data set [13] can be described thus: Cmax in APPswe/PS1dE9 double mutant-transgenic mouse at 3 mg/kg, iv administered as single dose by LC-MS/MS analysis. Type of data set: ADME, organism-based. Details: dose 3 mg/kg, route intravenous. Particulars: in vivo.
Data set [14] can be described thus: Mean residence time in APPswe/PS1dE9 double mutant-transgenic mouse at 3 mg/kg, iv administered as single dose by LC-MS/MS analysis. In kind it is ADME, organism-based. As to conditions: in vivo.
Data set [15] in a line: Drug level in APPswe/PS1dE9 double mutant-transgenic mouse brain at 30 mg/kg, ip administered as single dose measured after 8 hrs by LC-MS/MS analysis. In kind it is ADME, organism-based. Particulars: read-out: Drug uptake.
Data set [16] concerns Mus musculus. The data set can be described thus: In vivo inhibition of […] phosphorylation in hippocampus of APPswe/PS1dE9 double mutant-transgenic mouse model at 30 mg/kg, ip administered once daily for 12 weeks measured post-last dose by Western blot analysis. Type of data set: functional, organism-based.
Data set [17] has as its system Mus musculus. The data set can be described thus: Improvement in spatial memory impairment in ip dosed APPswe/PS1dE9 double mutant-transgenic mouse model assessed as decrease in area occupied by fibrillar plaque in hippocampus administered once daily for 12 weeks measured post-last dose by thioflavin S staining-based fluorescence microscopic analysis. Type of data set: functional, organism-based.

A short description of data set [18]: AUC in APPswe/PS1dE9 double mutant-transgenic mouse at 30 mg/kg, ip administered as single dose by LC-MS/MS analysis. Type of data set: ADME, organism-based. As to conditions: in vivo.
Data set [19] has as its target Mitogen-activated protein kinase 9 (Homo sapiens, UniProt P45984). As to the kind of experiment: Inhibition of human JNK2alpha2 using ATF2 as substrate measured after 40 mins in presence of [gamma33P]ATP by scintillation counting analysis.
A short description of data set [20]: Toxicity in APPswe/PS1dE9 double mutant-transgenic mouse assessed as change in body weight at 15 to 30 mg/kg, ip administered once daily for 12 weeks and measured every week during compound dosing. In kind it is organism-based. As to conditions: in vivo, 2016 h.
Data set [21] can be described thus: Terminal half life in APPswe/PS1dE9 double mutant-transgenic mouse at 30 mg/kg, ip administered as single dose by LC-MS/MS analysis. Type of data set: ADME, organism-based. Particulars: in vivo, read-out: beta t1/2 (converted).
Data set [22] concerns Mus musculus. As to the kind of experiment: Improvement in spatial memory impairment in ip dosed APPswe/PS1dE9 double mutant-transgenic mouse model assessed as decrease in number of diffused plaque in hippocampus administered once daily for 12 weeks measured post-last dose by thioflavin S staining-based fluorescence microscopic analysis. In kind it is functional, organism-based.

Data set [23] is described as follows: Toxicity in APPswe/PS1dE9 double mutant-transgenic mouse model assessed as effect on swimming speed at 15 to 30 mg/kg, ip administered once daily for 12 weeks measured 48 hrs after training trial by morris water maze test. As to conditions: in vivo. In kind it is organism-based.
Data set [24] is described as follows: Toxicity in APPswe/PS1dE9 double mutant-transgenic mouse model assessed as effect on time to reach target quadrant at 15 to 30 mg/kg, ip administered once daily for 12 weeks measured 48 hrs after training trial by morris water maze test. As to conditions: in vivo. In kind it is organism-based.

Mitogen-activated protein kinase 9, sequence (P45984 whole entry): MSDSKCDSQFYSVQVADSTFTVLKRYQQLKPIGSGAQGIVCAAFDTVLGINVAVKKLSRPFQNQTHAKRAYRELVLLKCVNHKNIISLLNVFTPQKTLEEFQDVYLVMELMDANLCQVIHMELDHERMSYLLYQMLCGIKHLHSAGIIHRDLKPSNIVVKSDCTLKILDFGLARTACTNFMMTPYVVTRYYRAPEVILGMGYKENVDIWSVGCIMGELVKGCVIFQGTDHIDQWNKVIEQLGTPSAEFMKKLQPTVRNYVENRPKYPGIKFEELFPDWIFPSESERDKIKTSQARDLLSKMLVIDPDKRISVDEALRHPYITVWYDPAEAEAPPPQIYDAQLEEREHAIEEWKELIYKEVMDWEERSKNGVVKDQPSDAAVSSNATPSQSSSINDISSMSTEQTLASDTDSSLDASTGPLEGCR
Mitogen-activated protein kinase 10, sequence (P53779 whole entry): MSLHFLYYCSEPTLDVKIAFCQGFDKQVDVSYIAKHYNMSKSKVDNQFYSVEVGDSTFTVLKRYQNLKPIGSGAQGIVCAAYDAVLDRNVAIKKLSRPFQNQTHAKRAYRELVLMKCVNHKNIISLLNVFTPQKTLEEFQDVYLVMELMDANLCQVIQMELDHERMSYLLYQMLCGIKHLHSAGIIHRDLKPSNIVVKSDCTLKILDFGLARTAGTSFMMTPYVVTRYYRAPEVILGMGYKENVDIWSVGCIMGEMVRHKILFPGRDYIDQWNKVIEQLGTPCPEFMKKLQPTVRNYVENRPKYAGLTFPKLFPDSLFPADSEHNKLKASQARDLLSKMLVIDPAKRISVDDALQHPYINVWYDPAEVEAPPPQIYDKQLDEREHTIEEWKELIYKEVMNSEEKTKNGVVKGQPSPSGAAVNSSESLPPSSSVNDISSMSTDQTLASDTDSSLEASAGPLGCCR

Take `O=C1N/C(=N/c2ccccc2Cl)S/C1=C1\C(=O)Nc2ccc(F)cc21`: the inhibition entry in the data set with Mus musculus [1], in the data set listed under Mus musculus [6], in the data set on Mus musculus [10] and in the data set with Mus musculus [16] was “Active” in each case. In addition, the half-life in data set [2] was 0.35 h; in data set [21] it was 16.1 h. In addition, the Activity entry in the data set with Mus musculus [3] was “Dose-dependent effect”; with Mus musculus [11], “Dose-dependent effect”; in the data set on Mus musculus [17], “Dose-dependent effect”; in data set [20], “Non-Toxic”; with Mus musculus [22], “Dose-dependent effect”; in data set [23] it was “Non-Toxic”. Further, in data set [24], the Activity result was “Non-Toxic”. In addition, the inhibition (as a rule, how much of the control response was suppressed) in data set [4] was 99%. For the same compound, in [5], the concentration at 0.5 h was determined as 20600 ng/mL. Also, the Kp at 2 h in data set [7] is 0.135. The concentration at 24 h in data set [8] was determined as 41 ng/mL. The outcome with Mus musculus [9] and with Mus musculus [12] was Active. Moreover, the Cmax – broadly, the maximum level reached in the sampled fluid or tissue – in data set [13] was 4550 ng/mL. In data set [14], the MRT – broadly, a mean duration of stay, worked out from the concentration-time curve – is 1.61 h. The concentration at 8 h in data set [15] is 30.7 ng/g. Moreover, the AUC (commonly the area under the concentration-time curve, a measure of exposure) in data set [18] was found to be 19200 ng·h/mL. Also, the IC50 (in general, the midpoint of a concentration-inhibition curve) in data set [19] was above 100 µM.
